ChEMBL document CHEMBL3792365, “Dioxol and dihydrodioxin analogs of 2- and 3-phenylacetonitriles as potent anti-cancer agents with nanomolar activity against a variety of human cancer cells” (2016)

What was measured:
Format in all cases: functional
[1] = Growth inhibition of human SNB75 cells at 10 uM after 48 hrs by sulforhodamine B assay; conditions: SNB-75, 48 h, values are per cent of control
U-251 = experiment: Growth inhibition of human U251 cells at 10 uM after 48 hrs by sulforhodamine B assay; conditions: U-251, 48 h, values are per cent of control
[2] = Growth inhibition of human LOXIMVI cells at 10 uM after 48 hrs by sulforhodamine B assay; conditions: LOX IMVI, values are per cent of control
M14 = experiment: Growth inhibition of human M14 cells at 10 uM after 48 hrs by sulforhodamine B assay; conditions: M14, 48 h, values are per cent of control
MDA-MB-435 = experiment: Growth inhibition of human MDA-MB-435 cells at 10 uM after 48 hrs by sulforhodamine B assay; conditions: MDA-MB-435, 48 h, values are per cent of control
SK-MEL-28 = experiment: Growth inhibition of human SK-MEL-28 cells at 10 uM after 48 hrs by sulforhodamine B assay; conditions: SK-MEL-28, 48 h, values are per cent of control
SK-MEL-5 = experiment: Growth inhibition of human SK-MEL-5 cells at 10 uM after 48 hrs by sulforhodamine B assay; conditions: SK-MEL-5, 48 h, values are per cent of control
[3] = Growth inhibition of human UACC62 cells at 10 uM after 48 hrs by sulforhodamine B assay; conditions: UACC-62, 48 h, values are per cent of control
[4] = Growth inhibition of human IGROV1 cells at 10 uM after 48 hrs by sulforhodamine B assay; conditions: IGROV-1, 48 h, values are per cent of control
[5] = Growth inhibition of human OVCAR4 cells at 10 uM after 48 hrs by sulforhodamine B assay; conditions: OVCAR-4, 48 h, values are per cent of control
[6] = Growth inhibition of human OVCAR5 cells at 10 uM after 48 hrs by sulforhodamine B assay; conditions: OVCAR-5, 48 h, values are per cent of control
[7] = Growth inhibition of human OVCAR8 cells at 10 uM after 48 hrs by sulforhodamine B assay; conditions: OVCAR-8, 48 h, values are per cent of control
[8] = Growth inhibition of human NCI-ADR-RES cells at 10 uM after 48 hrs by sulforhodamine B assay; conditions: values are per cent of control
A498 = experiment: Growth inhibition of human A498 cells at 10 uM after 48 hrs by sulforhodamine B assay; conditions: A498, 48 h, values are per cent of control
ACHN = experiment: Growth inhibition of human ACHN cells at 10 uM after 48 hrs by sulforhodamine B assay; conditions: values are per cent of control
[9] = Growth inhibition of human Caki1 cells at 10 uM after 48 hrs by sulforhodamine B assay; conditions: CAKI-1, 48 h, values are per cent of control
[10] = Growth inhibition of human RXF393 cells at 10 uM after 48 hrs by sulforhodamine B assay; conditions: RXF 393, 48 h, values are per cent of control
SN12C = experiment: Growth inhibition of human SN12C cells at 10 uM after 48 hrs by sulforhodamine B assay; conditions: values are per cent of control
[11] = Growth inhibition of human UO31 cells at 10 uM after 48 hrs by sulforhodamine B assay; conditions: UO-31, 48 h, values are per cent of control
[12] = Growth inhibition of human DU145 cells at 10 uM after 48 hrs by sulforhodamine B assay; conditions: DU-145, 48 h, values are per cent of control
MDA-MB-231 = experiment: Growth inhibition of human MDA-MB-231 cells at 10 uM after 48 hrs by sulforhodamine B assay; conditions: MDA-MB-231, 48 h, values are per cent of control
[13] = Growth inhibition of human Hs 578T cells at 10 uM after 48 hrs by sulforhodamine B assay; conditions: values are per cent of control
[14] = Growth inhibition of human BT549 cells at 10 uM after 48 hrs by sulforhodamine B assay; conditions: BT-549, 48 h, values are per cent of control
T47D = experiment: Growth inhibition of human T47D cells at 10 uM after 48 hrs by sulforhodamine B assay; conditions: values are per cent of control
MDA-MB-468 = experiment: Growth inhibition of human MDA-MB-468 cells at 10 uM after 48 hrs by sulforhodamine B assay; conditions: MDA-MB-468, 48 h, values are per cent of control
K562 = experiment: Growth inhibition of human K562 cells at 10 uM after 48 hrs by sulforhodamine B assay; conditions: K562, 48 h, values are per cent of control
A549 = experiment: Growth inhibition of human A549/ATCC cells at 10 uM after 48 hrs by sulforhodamine B assay; conditions: A549, 48 h, values are per cent of control
[15] = Growth inhibition of human HOP62 cells at 10 uM after 48 hrs by sulforhodamine B assay; conditions: HOP-62, 48 h, values are per cent of control
NCI-H322M = experiment: Growth inhibition of human NCI-H322M cells at 10 uM after 48 hrs by sulforhodamine B assay; conditions: values are per cent of control
NCI-H460 = experiment: Growth inhibition of human NCI-H460 cells at 10 uM after 48 hrs by sulforhodamine B assay; conditions: NCI-H460, 48 h, values are per cent of control
NCI-H522 = experiment: Growth inhibition of human NCI-H522 cells at 10 uM after 48 hrs by sulforhodamine B assay; conditions: NCI-H522, 48 h, values are per cent of control
[16] = Growth inhibition of human COLO205 cells at 10 uM after 48 hrs by sulforhodamine B assay; conditions: COLO 205, 48 h, values are per cent of control
[17] = Growth inhibition of human HCC2998 cells at 10 uM after 48 hrs by sulforhodamine B assay; conditions: HCC 2998, 48 h, values are per cent of control
[18] = Growth inhibition of human HCT116 cells at 10 uM after 48 hrs by sulforhodamine B assay; conditions: HCT-116, 48 h, values are per cent of control
[19] = Growth inhibition of human HCT15 cells at 10 uM after 48 hrs by sulforhodamine B assay; conditions: HCT-15, 48 h, values are per cent of control
KM12 = experiment: Growth inhibition of human KM12 cells at 10 uM after 48 hrs by sulforhodamine B assay; conditions: KM12, 48 h, values are per cent of control
[20] = Growth inhibition of human SW620 cells at 10 uM after 48 hrs by sulforhodamine B assay; conditions: SW-620, 48 h, values are per cent of control
[21] = Growth inhibition of human SF268 cells at 10 uM after 48 hrs by sulforhodamine B assay; conditions: SF-268, 48 h, values are per cent of control
[22] = Growth inhibition of human SF539 cells at 10 uM after 48 hrs by sulforhodamine B assay; conditions: SF-539, 48 h, values are per cent of control
[23] = Growth inhibition of human SNB19 cells at 10 uM after 48 hrs by sulforhodamine B assay; conditions: SNB-19, 48 h, values are per cent of control

## N#C/C(=C\c1cc(F)cc(F)c1)c1ccc2c(c1)OCO2
[1]
  growth, % of control at 10 µM: 112%
U-251
  growth, % of control at 10 µM: 108%
[2]
  growth, % of control at 10 µM: 105%
M14
  growth, % of control at 10 µM: 99%
MDA-MB-435
  growth, % of control at 10 µM: 98.2%
SK-MEL-28
  growth, % of control at 10 µM: 115%
SK-MEL-5
  growth, % of control at 10 µM: 105%
[3]
  growth, % of control at 10 µM: 106%
[4]
  growth, % of control at 10 µM: 121%
[5]
  growth, % of control at 10 µM: 107%
[6]
  growth, % of control at 10 µM: 103%
[7]
  growth, % of control at 10 µM: 96.7%
[8]
  growth, % of control at 10 µM: 106%
A498
  growth, % of control at 10 µM: 111%
ACHN
  growth, % of control at 10 µM: 109%
[9]
  growth, % of control at 10 µM: 94.2%
[10]
  growth, % of control at 10 µM: 98.5%
SN12C
  growth, % of control at 10 µM: 106%
[11]
  growth, % of control at 10 µM: 104%
[12]
  growth, % of control at 10 µM: 109%
MDA-MB-231
  growth, % of control at 10 µM: 102%
[13]
  growth, % of control at 10 µM: 122%
[14]
  growth, % of control at 10 µM: 94.5%
T47D
  growth, % of control at 10 µM: 102%
MDA-MB-468
  growth, % of control at 10 µM: 102%
K562
  growth, % of control at 10 µM: 106%
A549
  growth, % of control at 10 µM: 100%
[15]
  growth, % of control at 10 µM: 91.9%
NCI-H322M
  growth, % of control at 10 µM: 121%
NCI-H460
  growth, % of control at 10 µM: 103%
NCI-H522
  growth, % of control at 10 µM: 132%
[16]
  growth, % of control at 10 µM: 105%
[17]
  growth, % of control at 10 µM: 94.6%
[18]
  growth, % of control at 10 µM: 97.1%
[19]
  growth, % of control at 10 µM: 99.4%
KM12
  growth, % of control at 10 µM: 97.6%
[20]
  growth, % of control at 10 µM: 105%
[21]
  growth, % of control at 10 µM: 101%
[22]
  growth, % of control at 10 µM: 97.8%
[23]
  growth, % of control at 10 µM: 110%

## N#C/C(=C\c1cc(Br)cc(Br)c1)c1ccc2c(c1)OCO2
[1]
  growth, % of control at 10 µM: 77.3%
U-251
  growth, % of control at 10 µM: 99.9%
[2]
  growth, % of control at 10 µM: 97.1%
M14
  growth, % of control at 10 µM: 92.8%
MDA-MB-435
  growth, % of control at 10 µM: 98.7%
SK-MEL-28
  growth, % of control at 10 µM: 98.9%
SK-MEL-5
  growth, % of control at 10 µM: 95.4%
[3]
  growth, % of control at 10 µM: 85.4%
[4]
  growth, % of control at 10 µM: 85.1%
[5]
  growth, % of control at 10 µM: 81.3%
[6]
  growth, % of control at 10 µM: 100%
[7]
  growth, % of control at 10 µM: 108%
[8]
  growth, % of control at 10 µM: 94.9%
A498
  growth, % of control at 10 µM: 90.4%
ACHN
  growth, % of control at 10 µM: 96.1%
[9]
  growth, % of control at 10 µM: 88.1%
[10]
  growth, % of control at 10 µM: 95.5%
SN12C
  growth, % of control at 10 µM: 94.7%
[11]
  growth, % of control at 10 µM: 76.5%
[12]
  growth, % of control at 10 µM: 94.2%
MDA-MB-231
  growth, % of control at 10 µM: 89.9%
[13]
  growth, % of control at 10 µM: 112%
[14]
  growth, % of control at 10 µM: 91.4%
T47D
  growth, % of control at 10 µM: 82%
MDA-MB-468
  growth, % of control at 10 µM: 103%
K562
  growth, % of control at 10 µM: 96.2%
A549
  growth, % of control at 10 µM: 79.9%
[15]
  growth, % of control at 10 µM: 104%
NCI-H322M
  growth, % of control at 10 µM: 91.4%
NCI-H460
  growth, % of control at 10 µM: 99.4%
NCI-H522
  growth, % of control at 10 µM: 76.3%
[16]
  growth, % of control at 10 µM: 106%
[17]
  growth, % of control at 10 µM: 90.7%
[18]
  growth, % of control at 10 µM: 82.1%
[19]
  growth, % of control at 10 µM: 92.6%
KM12
  growth, % of control at 10 µM: 92.4%
[20]
  growth, % of control at 10 µM: 101%
[21]
  growth, % of control at 10 µM: 93.5%
[22]
  growth, % of control at 10 µM: 94.4%
[23]
  growth, % of control at 10 µM: 109%
